From PubChem BioAssay (NCI)
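Exposure lasted 48 hours, with cells grown in 96-well plates and compounds tested at five concentrations. GI50: concentration for 50% inhibition of growth. TGI denotes the concentration required for complete inhibition of growth.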

Tests used:
Test in all cases: NCI tumour cell line growth inhibition, 48 h
[1] = test system: 786-0 renal
[2] = test system: A498 renal
[3] = test system: A549 NSCLC
[4] = test system: ACHN renal
[5] = test system: BT-549 breast
[6] = test system: CAKI-1 renal
[7] = test system: CCRF-CEM leukemia
[8] = test system: COLO 205 colon
[9] = test system: DU-145 prostate
[10] = test system: EKVX NSCLC
[11] = test system: HCC-2998 colon
[12] = test system: HCT-116 colon
[13] = test system: HCT-15 colon
[14] = test system: HL-60(TB) leukemia
[15] = test system: HOP-62 NSCLC
[16] = test system: HOP-92 NSCLC
[17] = test system: HS 578T breast
[18] = test system: HT29 colon
[19] = test system: IGROV1 ovarian
[20] = test system: K-562 leukemia
[21] = test system: KM12 colon
[22] = test system: LOX IMVI melanoma
[23] = test system: M14 melanoma
[24] = test system: MALME-3M melanoma
[25] = test system: MCF7 breast
[26] = test system: MDA-MB-231 breast
[27] = test system: MDA-MB-435
[28] = test system: MOLT-4 leukemia
[29] = test system: NCI-H226 lung
[30] = test system: NCI-H23 lung
[31] = test system: NCI-H460 lung
[32] = test system: NCI-H522 lung
[33] = test system: NCI/ADR-RES ovarian
[34] = test system: OVCAR-3 ovarian
[35] = test system: OVCAR-4 ovarian
[36] = test system: OVCAR-5 ovarian
[37] = test system: OVCAR-8 ovarian
[38] = test system: PC-3 prostate
[39] = test system: RPMI-8226 leukemia
[40] = test system: RXF 393 renal
[41] = test system: SF-268 CNS
[42] = test system: SF-295 CNS
[43] = test system: SF-539 CNS
[44] = test system: SK-MEL-2 melanoma
[45] = test system: SK-MEL-28 melanoma
[46] = test system: SK-MEL-5 melanoma
[47] = test system: SK-OV-3 ovarian
[48] = test system: SN12C renal
[49] = test system: SNB-19 CNS
[50] = test system: SNB-75 CNS
[51] = test system: SR leukemia
[52] = test system: SW-620 colon
[53] = test system: T-47D breast
[54] = test system: TK-10 renal
[55] = test system: U251 CNS
[56] = test system: UACC-257 melanoma
[57] = test system: UACC-62 melanoma
[58] = test system: UO-31 renal

N#CC1=C(N)Oc2c(sc3c(Br)cccc23)C1c1ccc([N+](=O)[O-])cc1 (stereo unspecified)
GI50 [1]: 158 nM | TGI [1]: 11900 nM | GI50 [2]: 43.4 nM | TGI [2]: 935 nM | GI50 [3]: 177 nM | TGI [3]: 13500 nM | GI50 [4]: 120 nM | TGI [4]: 13000 nM | GI50 [5]: 319 nM | TGI [5]: 5310 nM | GI50 [6]: 83.7 nM | TGI [6]: 16900 nM | GI50 [7]: 121 nM | TGI [7]: 9890 nM | GI50 [8]: 224 nM | TGI [8]: 1140 nM | GI50 [9]: 140 nM | TGI [9]: 9260 nM | GI50 [10]: 462 nM | TGI [10]: 19400 nM | GI50 [11]: 284 nM | TGI [11]: 6940 nM | GI50 [12]: 79.9 nM | TGI [12]: 11000 nM | GI50 [13]: 94.8 nM | TGI [13]: 10500 nM | GI50 [14]: 81.6 nM | TGI [14]: 1150 nM | GI50 [15]: 123 nM | TGI [15]: 14000 nM | GI50 [16]: 44.1 nM | TGI [16]: 8820 nM | GI50 [17]: 77.4 nM | TGI [17]: 16400 nM | GI50 [18]: 297 nM | TGI [18]: 3200 nM | GI50 [19]: 330 nM | TGI [19]: 18400 nM | GI50 [20]: 45.8 nM | TGI [20]: 13500 nM | GI50 [21]: 99.7 nM | TGI [21]: 9360 nM | GI50 [22]: 127 nM | TGI [22]: 4310 nM | GI50 [23]: 96.4 nM | TGI [23]: 11800 nM | GI50 [24]: 1080 nM | TGI [24]: 24700 nM | GI50 [25]: 151 nM | TGI [25]: 11600 nM | GI50 [26]: 514 nM | TGI [26]: 9670 nM | GI50 [27]: 20.6 nM | TGI [27]: 80.7 nM | GI50 [28]: 223 nM | TGI [28]: 6070 nM | GI50 [29]: 368 nM | TGI [29]: 15600 nM | GI50 [30]: 131 nM | TGI [30]: 13200 nM | GI50 [31]: 65.5 nM | TGI [31]: 10400 nM | GI50 [32]: 21.6 nM | TGI [32]: 616 nM | GI50 [33]: 39.8 nM | TGI [33]: 8370 nM | GI50 [34]: 40.3 nM | TGI [34]: 849 nM | GI50 [35]: 900 nM | TGI [35]: 18700 nM | GI50 [36]: 1400 nM | TGI [36]: 16400 nM | GI50 [37]: 227 nM | TGI [37]: 12200 nM | GI50 [38]: 110 nM | TGI [38]: 13600 nM | GI50 [39]: 116 nM | TGI [39]: 6490 nM | GI50 [40]: 36 nM | TGI [40]: 2230 nM | GI50 [41]: 547 nM | TGI [41]: 10700 nM | GI50 [42]: 41.7 nM | TGI [42]: 11100 nM | GI50 [43]: 61.9 nM | TGI [43]: 475 nM | GI50 [44]: 294 nM | TGI [44]: 17500 nM | GI50 [45]: 2660 nM | TGI [45]: 21000 nM | GI50 [46]: 65.2 nM | TGI [46]: 4450 nM | GI50 [47]: 128 nM | TGI [47]: 15100 nM | GI50 [48]: 1000 nM | TGI [48]: 13100 nM | GI50 [49]: 139 nM | TGI [49]: 13000 nM | GI50 [50]: 59.5 nM | TGI [50]: 8410 nM | GI50 [51]: 48 nM | TGI [51]: 6450 nM | GI50 [52]: 70.8 nM | TGI [52]: 14500 nM | GI50 [53]: 840 nM | TGI [53]: 25300 nM | GI50 [54]: 2320 nM | TGI [54]: 20000 nM | GI50 [55]: 151 nM | TGI [55]: 11800 nM | GI50 [56]: 11400 nM | TGI [56]: 27500 nM | GI50 [57]: 63.4 nM | TGI [57]: 12300 nM | GI50 [58]: 126 nM | TGI [58]: 14500 nM
